Entries after “also recorded” stand apart in the source; their conditions may differ.

The subject of one test is HIV-1LAI. The experiment in a line: HIV-1LAI infection of CD8-depleted PBMC. The format is cell-based. The conditions noted are these: 100 μM. The source says:
The use of healthy human peripheral blood mononuclear cells (PBMC) is approved by the Department of Transfusion Medicine at the Clinical Center of National Institutes of Health. The use of PBMC from HIV-1 infected individuals for the study was approved under protocol #02-I-0202 by the Institutional Review Board (IRB) of National Institutes of Health with written informed consent from all donors. Peripheral blood mononuclear cells (PBMCs) from anonymous healthy donors were isolated by Ficoll-Paque gradient, and cultured in RPMI 1640 supplemented with 10% FBS, 1%Penicillin/streptomycin, 1% HEPES buffer and 20 U/mL IL-2 (culture media); and stimulated with 0.2 μg/mL anti-CD3 antibody (okt3) for 2 days. CD8^+ T cells were depleted prior to infection using the Stemcell CD8 positive selection kit according to manufacturer’s instructions. […] The infections were proceeded with or without inhibitors for 6 days or otherwise specified number of days and then analyzed by FACS staining using fluorescent labeled CD4-BV510, CD62L-APC and CD3-PEC7 antibodies (BD Biosciences). […] Replication competent HIV-1 viruses were obtained from the NIH AIDS Reagent Program^4, and expanded by infecting activated CD8-depleted PBMCs, and TCID50 was determined by p24 ELISA.

In test [1] the target is T1, recombinant HIV-1 protease (Human immunodeficiency virus type 1 group M subtype B, UniProt P04585).
T1 construct: recombinant HIV-1 protease; purchased Sigma-Aldrich SRP2151
The experiment in a line: HIV-1 protease fluorogenic substrate cleavage. The format is biochemical. Conditions: 100nM saquinavir or nelfinavir; MMP inhibitors up to 10uM. How it is done: HIV-1 protease enzymatic activity was assayed in black 96-well plates at room temperature using a Synergy_h1 fluorescent plate reader with 340 nm excitation and 490 nm emission wavelengths (BioTek). Each enzymatic reaction consisted of a mixture of 100 ng of recombinant HIV-1 protease (Sigma-Aldrich catalog SRP2151), 5 μM concentration of a fluorogenic substrate Arg-Glu(EDANS)-[…]DABCYL)-Arg (Sigma-aldrich catalog H6660), and various concentrations of inhibitor compounds in 100 μL of assay buffer (0.15 M sodium chloride, 1.0 mM EDTA, 1.0 mM DTT, 0.1 M sodium acetate, pH 5.0). The fluorescence of the cleavage reaction was continuously read at every 30 s for a total of 40 min.

The next test addresses T2, recombinant ADAM10 (Homo sapiens, UniProt O14672).
T2 construct: purchased R&D systems, Inc
T2 sequence (O14672 214-748): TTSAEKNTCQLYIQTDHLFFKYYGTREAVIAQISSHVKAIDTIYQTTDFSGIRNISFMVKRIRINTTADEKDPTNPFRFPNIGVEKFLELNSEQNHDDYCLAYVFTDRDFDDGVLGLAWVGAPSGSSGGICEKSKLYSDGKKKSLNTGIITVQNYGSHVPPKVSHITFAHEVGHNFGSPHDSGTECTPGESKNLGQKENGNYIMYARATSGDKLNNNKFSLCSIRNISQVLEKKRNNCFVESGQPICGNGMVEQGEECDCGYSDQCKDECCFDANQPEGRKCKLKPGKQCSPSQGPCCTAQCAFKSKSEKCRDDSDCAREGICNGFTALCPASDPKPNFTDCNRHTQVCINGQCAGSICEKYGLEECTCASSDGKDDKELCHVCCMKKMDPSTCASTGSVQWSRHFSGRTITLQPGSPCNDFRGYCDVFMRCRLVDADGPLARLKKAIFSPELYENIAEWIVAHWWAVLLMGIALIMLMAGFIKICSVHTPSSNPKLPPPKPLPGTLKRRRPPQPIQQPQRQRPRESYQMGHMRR
As to the kind of experiment: Cleavage of fluorogenic CD62L peptide by recombinant ADAM10. The format is biochemical. Conditions: 2 μM compound. The source says:
A fluorescence based enzymatic assay was used to measure the cleavage of fluorogenic TNF-α and L-selectin (CD62L) peptides by either recombinant ADAMs or PBMC from healthy donors. The fluorogenic substrate, synthesized by Biomatik^3, was a Dabcyl (4-(4-dimethylaminophenylazo)benzoyl)- and Edans (5-[(2-aminoethyl)amino]naphthalene-1-sulfonic acid)- conjugated 12 amino acid peptide: Dabcyl-[…]-Edans that corresponds to the extracellular membrane proximal region of CD62L. The fluorescence of the Edans group is quenched by the Dabcyl group in the intact substrate and the cleavage of the CD62L substrate peptide results in a fluorescence emission at 490 nm. The cleavage of fluorogenic TNF-α peptide (ES003, R &D systems, Inc) was detected at emission of 405 nm. The cleavage was measured in a kinetic assay every 3 min for 4 h in black 96-well plates using a Synergy_h1 fluorescent plate reader (BioTek) with 340 nm excitation and 490 nm emission wavelengths. For cleavage using recombinant ADAMs, each enzymatic reaction contained 50–200 ng of recombinant ADAM17 or 10 (R&D systems, Inc) mixed with 5–10 μM fluorogenic TNFα peptide ES003 (R&D systems, Inc) or CD62L peptide with or without indicated inhibitors in 100 μL assay buffer of 25 mM Tris at pH 9.0, 2.5 μM ZnCl2, and 0.005% Brij-35 (w/v). For cell-based cleavage of the fluorescent CD62L-peptide substrate, 300,000 PBMC at 2×10^6/ml density were mixed with 10 μM fluorescent CD62L-peptide and various inhibitors in a black 96-well plate in 150 μL culture media (RPMI 1640, 10% FBS, 1% penicillin streptomycin). PBMC were stimulated with anti-CD3 antibody for 2–4 days as described above.
Supplemental Figure 3. Inhibition of ADAM10 enzymatic activity by 14mb. A) chemical structure of 3-Cl-phenylpyrrolidine tartrate diamide analogs 14m and 15. B)Inhibition of recombinant ADAM10 cleavage of a fluorogenic CD62L peptide substrate in the presence of titrating concentrations of 14mb. The concentration-dependent enzymatic activities are fitted with non-linear regression of normalized inhibition response model. C). Inhibition of ADAM10 enzymatic cleavage of fluorogenic CD62L peptide by various […]

A further test has as its system HIV-1BAL. As to the kind of experiment: HIV-1BAL infection of CD8-depleted PBMC, FACS (intracellular p24, CD4, CD62L). It counts as cell-based. Conditions: for accumulation of infected CD4−/CD62L− T cells (loss of CD62L): HIV-1BAL infected cells; for effect on HIV-1BAL infection (intracellular p24): day 7 post infection, compounds at 100 μM, GI254023X at 250 μM.

For the compound `CC1(C)SCCN(S(=O)(=O)c2ccc(Oc3ccncc3)cc2)[C@H]1C(=O)NO` [prinomastat], in the test with HIV-1LAI, the “effect on X4 tropic HIV-1LAI infection” value is “inhibited the X4 tropic HIV-1LAI infections”. Also, the “effect on HIV protease cleavage of fluorogenic substrate” value in test [1] was “none of the MMP inhibitors, including BB-94, prinomastat, GM6001 and DMDP, inhibited the activity of HIV protease”. Further, on recombinant ADAM10, the “inhibition of ADAM10 cleavage of CD62L substrate peptide” value (from here on “inhibition … of CD62L substrate peptide”) is recorded as “completely suppressed”. In addition, in the test with HIV-1BAL, the “accumulation of infected CD4−/CD62L− T cells (loss of CD62L)” value (from here on “accumulation … (loss of CD62L)”) is recorded as “reduced the accumulation” and the “effect on HIV-1BAL infection (intracellular p24)” value (shortened to “effect on HIV-1BAL infection”) is on record as “inhibited HIV-1BAL infections”.

As for `CNC(=O)[C@H](Cc1ccccc1)NC(=O)[C@H](CC(C)C)[C@H](CSc1cccs1)C(=O)NO` [BB-94, Batimastat], the “effect on X4 tropic HIV-1LAI infection” value in the test with HIV-1LAI is “inhibited the X4 tropic HIV-1LAI infections”. For the same compound, in test [1], the “effect on HIV protease cleavage of fluorogenic substrate” value was “none of the MMP inhibitors, including BB-94, prinomastat, GM6001 and DMDP, inhibited the activity of HIV protease”. Besides, on recombinant ADAM10, the “inhibition … of CD62L substrate peptide” value is recorded as “indistinguishable with that of fluorogenic peptide CD62L-only without the enzyme; also recorded: completely suppressed”. Also, the “inhibition when added on day 3 and 5 after initiation of infection” value in the test with HIV-1BAL (100μM, added day 0, 3, 5 post infection) is recorded as “progressive reduction in its inhibition”. For the same compound, in the test with HIV-1BAL, the “accumulation … (loss of CD62L)” value was “reduced the accumulation” and the “effect on HIV-1BAL infection” value was “inhibited HIV-1BAL infections”.

On to `CNC(=O)[C@@H](NC(=O)[C@H](CCCc1ccccc1)[C@H](C)N(O)C=O)C(C)(C)C` [GI254023X], for which, on recombinant ADAM10, the “inhibition … of CD62L substrate peptide” value is “completely suppressed”. Moreover, in the test on HIV-1BAL, the “accumulation … (loss of CD62L)” value was “did not inhibit the accumulation” and the “effect on HIV-1BAL infection” value is “fail to significantly suppress the viral infections”.

The record behind these values is article PMC10987949, “Inhibition of HIV-1 release by ADAM metalloproteinase inhibitors” (Frontiers in Microbiology, 2024).
